# Publication PMC9668100, “Isovitexin Protects Mice from Methicillin-Resistant Staphylococcus aureus-Induced Pneumonia by Targeting Sortase A” (Journal of Microbiology and Biotechnology, 2022)
# Biological target: Sortase A (SrtA) (Staphylococcus aureus, UniProt Q2FV99)
# Assay: intrinsic fluorescence quenching with purified recombinant SrtA (KA); also FRET inhibition of purified SrtA, IC50 =[…], reversible
# Type: binding
# Chain of Sortase A (SrtA) (Q2FV99 whole entry): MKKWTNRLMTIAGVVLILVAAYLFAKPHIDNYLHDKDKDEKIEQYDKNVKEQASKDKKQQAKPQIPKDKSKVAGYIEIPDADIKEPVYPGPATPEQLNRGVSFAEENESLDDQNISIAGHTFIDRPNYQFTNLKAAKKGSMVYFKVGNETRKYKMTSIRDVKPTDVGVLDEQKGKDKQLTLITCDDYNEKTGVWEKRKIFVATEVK
compound,measurement,value
O=c1cc(-c2ccc(O)cc2)oc2cc(O)c([C@@H]3O[C@H](CO)[C@@H](O)[C@H](O)[C@H]3O)c(O)c12 [isovitexin],Kd,14 µM
